The NIST ThermoML archive (doi:10.1016/j.fluid.2016.06.019)

Columns and labels:
[1] = refractive index (Na D-line) (dimensionless); wn = mass fraction of the nth substance listed; conditions: 298.15 K, 100 kPa, Liquid, Standard Abbe refractometry
[2] = refractive index (Na D-line) (dimensionless); conditions: 298.15 K; 100 kPa; Liquid; Standard Abbe refractometry
[3] = wn = mass fraction of the nth substance listed; conditions: 298.15 K, 100 kPa, Liquid, Vibrating tube method

O [water] + O=S(=O)([O-])[O-].[Na+].[Na+]
Conditions | refractive index
[1], w2 = 0 | 1.3325

O [water] + N.N.O=S(=O)(O)O
Conditions | refractive index
[1], w2 = 0 | 1.3325

O [water]
Conditions | refractive index
[2] | 1.3325

N.N.O=S(=O)(O)O [ammonium sulfate] + O
Conditions | mass density, [3] [kg/m3] | refractive index, [1]
w1 = 0.0005 | 997.4 | 1.33259
w1 = 0.0011 | 997.7 | 1.33268
w1 = 0.0053 | 1000.3 | 1.33337
w1 = 0.0104 | 1003.3 | 1.33425
w1 = 0.0208 | 1009.4 | 1.33594
w1 = 0.0412 | 1021.2 | 1.33921
w1 = 0.0712 | 1038.4 | 1.34393
w1 = 0.1007 | 1055.3 | 1.34856

O=S(=O)([O-])[O-].[Na+].[Na+] [sodium sulfate] + O
Conditions | mass density, [3] [kg/m3] | refractive index, [1]
w1 = 0.0005 | 997.6 | 1.33258
w1 = 0.0011 | 998.1 | 1.33266
w1 = 0.0053 | 1002 | 1.33331
w1 = 0.0108 | 1006.9 | 1.33414
w1 = 0.0214 | 1016.5 | 1.3357
w1 = 0.042 | 1035.1 | 1.33875
w1 = 0.0719 | 1062.6 | 1.34307
w1 = 0.0994 | 1088.5 | 1.34535
